Tests used:
[1] = bifidobacterium adolescentis, 12 h, 2 µM
Description: The drug is tested on Bifidobacterium adolescentis strain: ATCC 15703 for biotransformation. The drug concentrations were measured before and after a 12-h incubation by liquid-chromatography-coupled mass spectrometry (LC–MS)

[2] = The drug is tested on Bacteroides fragilis strain: HMW610 for biotransformation. The drug concentrations were measured before and after a 12-h incubation by liquid-chromatography-coupled mass spectrometry (LC–MS); settings: 2 µM
[3] = parabacteroides distasonis, 12 h, 2 µM
Description: The drug is tested on Parabacteroides distasonis strain: ATCC8503 for biotransformation. The drug concentrations were measured before and after a 12-h incubation by liquid-chromatography-coupled mass spectrometry (LC–MS)

[4] = The drug is tested on Bacteroides pectinophilus strain: ATCC43243 for biotransformation. The drug concentrations were measured before and after a 12-h incubation by liquid-chromatography-coupled mass spectrometry (LC–MS); settings: 2 µM
[5] = The drug is tested on Bifidobacterium breve strain: DSM20213 for biotransformation. The drug concentrations were measured before and after a 12-h incubation by liquid-chromatography-coupled mass spectrometry (LC–MS); settings: 2 µM
[6] = The drug is tested on Eubacterium hallii strain: DSM3353 for biotransformation. The drug concentrations were measured before and after a 12-h incubation by liquid-chromatography-coupled mass spectrometry (LC–MS); settings: anaerobutyricum hallii, 2 µM
[7] = The drug is tested on Enterobacter cancerogenus strain: ATCC35316 for biotransformation. The drug concentrations were measured before and after a 12-h incubation by liquid-chromatography-coupled mass spectrometry (LC–MS); settings: 2 µM
[8] = bacteroides thetaiotaomicron, 12 h, 2 µM
Description: The drug is tested on Bacteroides thetaiotaomicron strain: 3731 for biotransformation. The drug concentrations were measured before and after a 12-h incubation by liquid-chromatography-coupled mass spectrometry (LC–MS)

[9] = The drug is tested on Bifidobacterium longum subsp. Infantis strain: CCUG52486 for biotransformation. The drug concentrations were measured before and after a 12-h incubation by liquid-chromatography-coupled mass spectrometry (LC–MS); settings: 2 µM
[10] = The drug is tested on Clostridium scindens strain: ATCC35704 for biotransformation. The drug concentrations were measured before and after a 12-h incubation by liquid-chromatography-coupled mass spectrometry (LC–MS); settings: 2 µM
[11] = The drug is tested on Collinsella intestinalis strain: DSM13280 for biotransformation. The drug concentrations were measured before and after a 12-h incubation by liquid-chromatography-coupled mass spectrometry (LC–MS); settings: 2 µM
[12] = bacteroides thetaiotaomicron, 12 h, 2 µM; remark: listed apart in the source
Description: The drug is tested on Bacteroides thetaiotaomicron strain: VPI-5482 for biotransformation. The drug concentrations were measured before and after a 12-h incubation by liquid-chromatography-coupled mass spectrometry (LC–MS)

[13] = The drug is tested on Escherichia coli strain: BW25113 for biotransformation. The drug concentrations were measured before and after a 12-h incubation by liquid-chromatography-coupled mass spectrometry (LC–MS); settings: 2 µM
[14] = limosilactobacillus reuteri cf48-3a, 12 h, 2 µM
Description: The drug is tested on Lactobacillus reuteri CF48-3A strain: BEI HM-102 for biotransformation. The drug concentrations were measured before and after a 12-h incubation by liquid-chromatography-coupled mass spectrometry (LC–MS)

[15] = bacteroides intestinalis, 12 h, 2 µM
Description: The drug is tested on Bacteroides intestinalis strain: DSM17393 for biotransformation. The drug concentrations were measured before and after a 12-h incubation by liquid-chromatography-coupled mass spectrometry (LC–MS)

[16] = bacteroides stercoris, 12 h, 2 µM
Description: The drug is tested on Bacteroides stercoris strain: ATCC43183 for biotransformation. The drug concentrations were measured before and after a 12-h incubation by liquid-chromatography-coupled mass spectrometry (LC–MS)

[17] = The drug is tested on Clostridium asparagiforme strain: DSM15981 for biotransformation. The drug concentrations were measured before and after a 12-h incubation by liquid-chromatography-coupled mass spectrometry (LC–MS); type: ADME; parameters: dose 2 uM, timepoint 0 vs 12 hours; settings: enterocloster asparagiformis, 2 µM
[18] = The drug is tested on Bacteroides caccae strain: ATCC43185 for biotransformation. The drug concentrations were measured before and after a 12-h incubation by liquid-chromatography-coupled mass spectrometry (LC–MS); settings: 2 µM
[19] = The drug is tested on Bifidobacterium ruminantium strain: fecal isolate for biotransformation. The drug concentrations were measured before and after a 12-h incubation by liquid-chromatography-coupled mass spectrometry (LC–MS); settings: 2 µM
[20] = The drug is tested on Odoribacter splanchnicus strain: fecal isolate for biotransformation. The drug concentrations were measured before and after a 12-h incubation by liquid-chromatography-coupled mass spectrometry (LC–MS); settings: 2 µM

## N[C@@H](Cc1ccc(N(CCCl)CCCl)cc1)C(=O)O
[1]
  Bacterial Biotransformation: Compound metabolized
[2]
  Bacterial Biotransformation: Compound metabolized
[3]
  Bacterial Biotransformation: Compound metabolized
[4]
  Bacterial Biotransformation: Compound metabolized
[5]
  Bacterial Biotransformation: Compound metabolized
[6]
  Bacterial Biotransformation: Compound metabolized
[7]
  Bacterial Biotransformation: Compound metabolized
[8]
  Bacterial Biotransformation: Compound metabolized
[9]
  Bacterial Biotransformation: Compound metabolized
[10]
  Bacterial Biotransformation: Compound metabolized
[11]
  Bacterial Biotransformation: Compound metabolized
[12]
  Bacterial Biotransformation: Compound metabolized
[13]
  Bacterial Biotransformation: Compound metabolized
[14]
  Bacterial Biotransformation: Compound metabolized
[15]
  Bacterial Biotransformation: Compound metabolized
[16]
  Bacterial Biotransformation: Compound metabolized
[17]
  Bacterial Biotransformation: Compound metabolized
[18]
  Bacterial Biotransformation: Compound metabolized
[19]
  Bacterial Biotransformation: Compound metabolized
[20]
  Bacterial Biotransformation: Compound metabolized

## CCOC(=O)[C@H](CCc1ccccc1)N[C@H]1CCc2ccccc2N(CC(=O)O)C1=O [BENAZEPRIL]
[1]
  Bacterial Biotransformation: Compound NOT metabolized
[2]
  Bacterial Biotransformation: Compound metabolized
[3]
  Bacterial Biotransformation: Compound metabolized
[4]
  Bacterial Biotransformation: Compound NOT metabolized
[5]
  Bacterial Biotransformation: Compound NOT metabolized
[6]
  Bacterial Biotransformation: Compound NOT metabolized
[7]
  Bacterial Biotransformation: Compound NOT metabolized
[8]
  Bacterial Biotransformation: Compound metabolized
[10]
  Bacterial Biotransformation: Compound NOT metabolized
[11]
  Bacterial Biotransformation: Compound NOT metabolized
[12]
  Bacterial Biotransformation: Compound metabolized
[13]
  Bacterial Biotransformation: Compound NOT metabolized
[14]
  Bacterial Biotransformation: Compound NOT metabolized
[15]
  Bacterial Biotransformation: Compound metabolized
[16]
  Bacterial Biotransformation: Compound metabolized
[17]
  Bacterial Biotransformation: Compound metabolized
[18]
  Bacterial Biotransformation: Compound metabolized
[19]
  Bacterial Biotransformation: Compound NOT metabolized
[20]
  Bacterial Biotransformation: Compound metabolized

## CC(NC(C)(C)C)C(=O)c1cccc(Cl)c1 (stereo not drawn) [BUPROPION]
[2]
  Bacterial Biotransformation: Compound NOT metabolized
[3]
  Bacterial Biotransformation: Compound NOT metabolized
[5]
  Bacterial Biotransformation: Compound NOT metabolized
[6]
  Bacterial Biotransformation: Compound NOT metabolized
[7]
  Bacterial Biotransformation: Compound NOT metabolized
[8]
  Bacterial Biotransformation: Compound NOT metabolized
[10]
  Bacterial Biotransformation: Compound NOT metabolized
[11]
  Bacterial Biotransformation: Compound NOT metabolized
[12]
  Bacterial Biotransformation: Compound NOT metabolized
[13]
  Bacterial Biotransformation: Compound metabolized
[14]
  Bacterial Biotransformation: Compound NOT metabolized
[16]
  Bacterial Biotransformation: Compound NOT metabolized
[17]
  Bacterial Biotransformation: Compound NOT metabolized
[18]
  Bacterial Biotransformation: Compound NOT metabolized
[19]
  Bacterial Biotransformation: Compound metabolized
[20]
  Bacterial Biotransformation: Compound metabolized

## CN1C(=O)CCS(=O)(=O)C1c1ccc(Cl)cc1 (stereo not drawn) [CHLORMEZANONE]
[1]
  Bacterial Biotransformation: Compound NOT metabolized
[2]
  Bacterial Biotransformation: Compound NOT metabolized
[3]
  Bacterial Biotransformation: Compound NOT metabolized
[4]
  Bacterial Biotransformation: Compound NOT metabolized
[5]
  Bacterial Biotransformation: Compound NOT metabolized
[6]
  Bacterial Biotransformation: Compound NOT metabolized
[7]
  Bacterial Biotransformation: Compound NOT metabolized
[9]
  Bacterial Biotransformation: Compound NOT metabolized
[10]
  Bacterial Biotransformation: Compound NOT metabolized
[11]
  Bacterial Biotransformation: Compound NOT metabolized
[12]
  Bacterial Biotransformation: Compound NOT metabolized
[13]
  Bacterial Biotransformation: Compound NOT metabolized
[14]
  Bacterial Biotransformation: Compound NOT metabolized
[15]
  Bacterial Biotransformation: Compound NOT metabolized
[17]
  Bacterial Biotransformation: Compound metabolized
[18]
  Bacterial Biotransformation: Compound NOT metabolized
[19]
  Bacterial Biotransformation: Compound metabolized
[20]
  Bacterial Biotransformation: Compound NOT metabolized

## C#C[C@]1(O)CC[C@H]2[C@@H]3CCC4=Cc5oncc5C[C@]4(C)[C@H]3CC[C@@]21C [DANAZOL]
[1]
  Bacterial Biotransformation: Compound metabolized
[2]
  Bacterial Biotransformation: Compound metabolized
[3]
  Bacterial Biotransformation: Compound metabolized
[4]
  Bacterial Biotransformation: Compound metabolized
[5]
  Bacterial Biotransformation: Compound metabolized
[6]
  Bacterial Biotransformation: Compound metabolized
[7]
  Bacterial Biotransformation: Compound metabolized
[8]
  Bacterial Biotransformation: Compound metabolized
[9]
  Bacterial Biotransformation: Compound metabolized
[10]
  Bacterial Biotransformation: Compound metabolized
[11]
  Bacterial Biotransformation: Compound metabolized
[12]
  Bacterial Biotransformation: Compound metabolized
[13]
  Bacterial Biotransformation: Compound metabolized
[15]
  Bacterial Biotransformation: Compound metabolized
[16]
  Bacterial Biotransformation: Compound metabolized
[17]
  Bacterial Biotransformation: Compound metabolized
[18]
  Bacterial Biotransformation: Compound metabolized
[19]
  Bacterial Biotransformation: Compound metabolized
[20]
  Bacterial Biotransformation: Compound metabolized

## CC[C@H](C)C(=O)O[C@H]1C[C@@H](C)C=C2C=C[C@H](C)[C@H](CC[C@@H]3C[C@@H](O)CC(=O)O3)[C@H]21 [LOVASTATIN]
[1]
  Bacterial Biotransformation: Compound metabolized
[2]
  Bacterial Biotransformation: Compound metabolized
[3]
  Bacterial Biotransformation: Compound metabolized
[5]
  Bacterial Biotransformation: Compound metabolized
[6]
  Bacterial Biotransformation: Compound metabolized
[7]
  Bacterial Biotransformation: Compound metabolized
[8]
  Bacterial Biotransformation: Compound NOT metabolized
[9]
  Bacterial Biotransformation: Compound NOT metabolized
[10]
  Bacterial Biotransformation: Compound metabolized
[11]
  Bacterial Biotransformation: Compound NOT metabolized
[12]
  Bacterial Biotransformation: Compound NOT metabolized
[13]
  Bacterial Biotransformation: Compound NOT metabolized
[14]
  Bacterial Biotransformation: Compound NOT metabolized
[15]
  Bacterial Biotransformation: Compound metabolized
[16]
  Bacterial Biotransformation: Compound NOT metabolized
[17]
  Bacterial Biotransformation: Compound metabolized
[18]
  Bacterial Biotransformation: Compound NOT metabolized
[19]
  Bacterial Biotransformation: Compound NOT metabolized
[20]
  Bacterial Biotransformation: Compound metabolized

## CC[C@H](C)C(=O)O[C@H]1CCC=C2C=C[C@H](C)[C@H](CC[C@@H]3C[C@@H](O)CC(=O)O3)[C@H]21 [MEVASTATIN]
[2]
  Bacterial Biotransformation: Compound NOT metabolized
[3]
  Bacterial Biotransformation: Compound metabolized
[4]
  Bacterial Biotransformation: Compound metabolized
[5]
  Bacterial Biotransformation: Compound metabolized
[6]
  Bacterial Biotransformation: Compound metabolized
[7]
  Bacterial Biotransformation: Compound metabolized
[8]
  Bacterial Biotransformation: Compound metabolized
[9]
  Bacterial Biotransformation: Compound metabolized
[10]
  Bacterial Biotransformation: Compound metabolized
[11]
  Bacterial Biotransformation: Compound metabolized
[12]
  Bacterial Biotransformation: Compound metabolized
[13]
  Bacterial Biotransformation: Compound metabolized
[14]
  Bacterial Biotransformation: Compound metabolized
[15]
  Bacterial Biotransformation: Compound metabolized
[16]
  Bacterial Biotransformation: Compound metabolized
[17]
  Bacterial Biotransformation: Compound metabolized
[18]
  Bacterial Biotransformation: Compound metabolized
[19]
  Bacterial Biotransformation: Compound metabolized
[20]
  Bacterial Biotransformation: Compound metabolized

## COc1ccc2c(c1OC)C(=O)O[C@@H]2[C@H]1c2c(cc3c(c2OC)OCO3)CCN1C [NOSCAPINE]
[1]
  Bacterial Biotransformation: Compound NOT metabolized
[2]
  Bacterial Biotransformation: Compound NOT metabolized
[3]
  Bacterial Biotransformation: Compound metabolized
[4]
  Bacterial Biotransformation: Compound metabolized
[5]
  Bacterial Biotransformation: Compound metabolized
[6]
  Bacterial Biotransformation: Compound metabolized
[7]
  Bacterial Biotransformation: Compound metabolized
[9]
  Bacterial Biotransformation: Compound metabolized
[10]
  Bacterial Biotransformation: Compound metabolized
[11]
  Bacterial Biotransformation: Compound metabolized
[12]
  Bacterial Biotransformation: Compound metabolized
[13]
  Bacterial Biotransformation: Compound NOT metabolized
[14]
  Bacterial Biotransformation: Compound metabolized
[15]
  Bacterial Biotransformation: Compound metabolized
[16]
  Bacterial Biotransformation: Compound metabolized
[17]
  Bacterial Biotransformation: Compound metabolized
[18]
  Bacterial Biotransformation: Compound NOT metabolized
[19]
  Bacterial Biotransformation: Compound metabolized
[20]
  Bacterial Biotransformation: Compound metabolized

## CNC(=C[N+](=O)[O-])NCCSCc1ccc(CN(C)C)o1 [RANITIDINE]
[1]
  Bacterial Biotransformation: Compound metabolized
[2]
  Bacterial Biotransformation: Compound NOT metabolized
[3]
  Bacterial Biotransformation: Compound NOT metabolized
[4]
  Bacterial Biotransformation: Compound metabolized
[5]
  Bacterial Biotransformation: Compound metabolized
[6]
  Bacterial Biotransformation: Compound metabolized
[7]
  Bacterial Biotransformation: Compound NOT metabolized
[8]
  Bacterial Biotransformation: Compound NOT metabolized
[9]
  Bacterial Biotransformation: Compound metabolized
[10]
  Bacterial Biotransformation: Compound metabolized
[11]
  Bacterial Biotransformation: Compound metabolized
[12]
  Bacterial Biotransformation: Compound NOT metabolized
[13]
  Bacterial Biotransformation: Compound NOT metabolized
[14]
  Bacterial Biotransformation: Compound NOT metabolized
[15]
  Bacterial Biotransformation: Compound NOT metabolized
[16]
  Bacterial Biotransformation: Compound NOT metabolized
[17]
  Bacterial Biotransformation: Compound metabolized
[19]
  Bacterial Biotransformation: Compound metabolized
[20]
  Bacterial Biotransformation: Compound metabolized

Reference: ChEMBL document CHEMBL5303573, “Mapping human microbiome drug metabolism by gut bacteria and their genes” (Nature, 2019)
